How the values were obtained:
Aβ42 [1] = experiment: Screening for γ-secretase-modulating activity, Method 1: Aβ42 sandwich ELISA in supernatant of SKNBE2 cells carrying APP 695 wild type (Tables 12a, 12b); assay type: cell-based
In short: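 SKNBE2 cells expressing wild-type APP695 were treated with compound for 18 h, and secreted Aβ42 in the medium was quantified by sandwich ELISA (C-terminal-selective capture, biotinylated 3D6 detection, TMB read at 450 nm). IC50 came from 4-parameter fits of % inhibition or % of untreated control; toxicity was checked by WST-1.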

Aβtotal [2] = experiment: Screening for γ-secretase-modulating activity, Method 1: Aβtotal sandwich ELISA in supernatant of SKNBE2 cells carrying APP 695 wild type (Tables 12a, 12b); assay type: cell-based
In short: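 SKNBE2 cells expressing wild-type APP 695 were plated a day ahead, then exposed to compound in Ultraculture with 1% glutamine for 18 hours. Supernatant Aβtotal captured on 6E10 overnight at 4° C, detected with biotinylated 4G8 and streptavidin-peroxidase with a fluorogenic substrate. IC50 from 4-parameter dose-response fits.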

Aβ42 [3] = experiment: Demonstration of in vivo efficacy: Aβ42 lowering in brain after single oral dose (Table 13); conditions: mouse brain soluble fraction, ELISA, mean, compared to untreated animals
Text: (§1) To determine whether acute administration of an Aβ42 lowering agent would reduce Aβ42 levels in vivo, non-transgenic rodents, e.g. mice or rats were used. Alternatively, two to three month old Tg2576 mice expressing APP695 containing the “Swedish” variant can be used or a transgenic mouse model developed by Dr. Fred Van Leuven (K. U. Leuven, Belgium) and co-workers, with neuron-specific expression of a clinical mutant of the human amyloid precursor protein [V717I] (Moechars et al., 1999 J. Biol. Chem. 274, 6483). Young transgenic mice have high levels of Aβ in the brain but no detectable Aβ deposition. At approximately 6-8 months of age, the transgenic mice start to display spontaneous, progressive accumulation of β-amyloid (Aβ) in the brain, eventually resulting in amyloid plaques within the subiculum, hippocampus and cortex. Animals treated with the Aβ42 lowering agent were examined and compared to those untreated or treated with vehicle and brain levels of soluble Aβ42 and total Aβ would be quantitated by standard techniques, for example, using ELISA. Treatment periods varied from hours to days and were adjusted based on the results of the Aβ42 lowering once a time course of onset of effect could be established.
(§2) A typical protocol for measuring Aβ42 lowering in vivo is shown but it is only one of many variations that could be used to optimize the levels of detectable Aβ. For example, Aβ42 lowering compounds were formulated in 20% of Captisol® (a sulfobutyl ether of β-cyclodextrin) in water or 20% hydroxypropyl β cyclodextrin. The Aβ42 lowering agents were administered as a single oral dose or by any acceptable route of administration to overnight fasted animals. After four hours, the animals were sacrificed and Aβ42 levels were analysed.
(§3) Blood was collected by decapitation and exsanguinations in EDTA-treated collection tubes. Blood was centrifuged at 1900 g for 10 minutes at 4° C. and the plasma recovered and flash frozen for later analysis. The brain was removed from the cranium and hindbrain. The cerebellum was removed and the left and right hemisphere were separated. The left hemisphere was stored at −18° C. for quantitative analysis of test compound levels. The right hemisphere was rinsed with phosphate-buffered saline (PBS) buffer and immediately frozen on dry ice and stored at −80° C. until homogenization for biochemical assays.
(§4) Mouse brains were resuspended in 10 volumes of 0.4% DEA (diethylamine)/50 mM NaCl pH 10 (for non-transgenic animals) or 0.1% 3-[3-cholamidopropyl)-dimethyl-ammonio]-1-propanesulfonate (CHAPS) in tris buffered saline (TBS) (for transgenic animals) containing protease inhibitors (Roche-11873580001 or 04693159001) per gram of tissue, e.g. for 0.158 g brain, add 1.58 ml of 0.4% DEA. All samples were sonicated for 30 seconds on ice at 20% power output (pulse mode). Homogenates were centrifuged at 221.300×g for 50 min. The resulting high speed supernatants were then transferred to fresh tubes and were optionally further purified before the next step. A portion of the supernatant was neutralized with 10% 0.5 M Tris-HCl and this was used to quantify Aβtotal.
The obtained supernatants were purified with Water Oasis HLB reverse phase columns (Waters Corp., Milford, Mass.) to remove non-specific immunoreactive material from the brain lysates prior subsequent Aβ detection. Using a vacuum manifold, all solutions were passed through the columns at a rate of approximately 1 ml per minute, so the vacuum pressure was adjusted accordingly throughout the procedure. Columns were preconditioned with 1 ml of 100% MeOH, before equilibration with 1 ml of H2O. Non-neutralized brain lysates were loaded onto the columns. The loaded samples were then washed twice with the first wash performed with 1 ml of 5% MeOH, and the second wash with 1 ml of 30% MeOH. Finally, the Aβ was eluted from the columns and into 100×30 mm glass tubes, with a solution of 90% MeOH with 2% NH4OH. […]

Aβtotal [4] = experiment: Demonstration of in vivo efficacy: Aβtotal lowering in brain after single oral dose (Table 13); conditions: mouse brain soluble fraction, mean, compared to untreated animals
Text: as §1, §2, §3
as §4, with “Aβtotal. […]” for “Aβtotal.”
In this model at least 20% Aβ42 lowering compared to untreated animals would be advantageous.

Aβ42 [5] = experiment: Screening for γ-secretase-modulating activity, Method 2: Aβ42 Alphalisa in supernatant of SKNBE2 cells carrying APP 695 wild type (Table 12c); assay type: cell-based; conditions: Homo sapiens, Method 2, Table 12c, incubated overnight
In short: (§5)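 SKNBE2 cells expressing wild-type APP695, 10^4 cells/well, exposed to compound overnight at 37 °C; secreted Aβ42 and Aβtotal in supernatant measured by AlphaLISA sandwich immunoassays (Aβ42: C-terminal/N-terminal antibodies; Aβtotal: N-terminal/4G8). IC50 from 4-parameter fit of % untreated control.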

Aβtotal [6] = experiment: Screening for γ-secretase-modulating activity, Method 2: Aβtotal Alphalisa in supernatant of SKNBE2 cells carrying APP 695 wild type (Table 12c); assay type: cell-based; conditions: Homo sapiens, Method 2, Table 12c, incubated overnight
In short: as §5

[7] = Homo sapiens, Table 12b, Method 1, SKNBE2 cells carrying APP 695 wild type, cell supernatant ELISA, averaged IC50 values, percentage of control vs log concentration
[8] = Homo sapiens, Table 12b, Method 1, SKNBE2 cells carrying APP 695 wild type, cell supernatant ELISA, averaged IC50 values
[9] = Homo sapiens, Method 1, Table 12a, SKNBE2 cells carrying APP 695 wild type, compounds 18 hours, ELISA, curve top and bottom fixed to 100 and 0, hill slope 1
[10] = Table 12b, Method 1, SKNBE2 cells carrying APP 695 wild type, cell supernatant ELISA, averaged IC50 values, percentage of control vs log concentration
[11] = Table 12b, Method 1, SKNBE2 cells carrying APP 695 wild type, cell supernatant ELISA, averaged IC50 values

SMILES	IC50 (Aβ42 [1]; [7]) [nM]	IC50 (Aβtotal [2]; [8]) [nM]	Aβ42 (% Ctrl)_Mean (Aβ42 [3]) [% Ctrl]	Aβtotal (% Ctrl)_Mean (Aβtotal [4]) [% Ctrl]	IC50 (Aβ42 [1]; [9]) [nM]	IC50 (Aβtotal [2]; [9]) [nM]	melting point [°C]	IC50 (Aβ42 [1]; [10]) [nM]	IC50 (Aβtotal [2]; [11]) [nM]	IC50 (Aβ42 [5]) [nM]	IC50 (Aβtotal [6]) [nM]
Cc1ncn(-c2ccc(Nc3cccn4cc(-c5cc(C(F)(F)F)ccc5C)nc34)cc2F)n1 [Compound 74]	123	> 3020	95	102	–	–	–	–	–	–	–
CCc1cn(-c2ccc(Nc3cccn4c(C)c(-c5cccc(OC)c5)nc34)cc2OC)cn1 [Compound 63]	29	> 3020	–	–	29	> 3000	159.9	–	–	–	–
COc1cc(Nc2cccn3c(C)c(-c4ccc(CC(C)C)cc4)nc23)ccc1-n1cnc(C)c1 [Compound 38]	51	> 3020	–	–	54	> 3000	224.6	–	–	–	–
Cc1ncn(-c2ccc(Nc3cccn4c(C)c(-c5ccccc5Cl)nc34)cn2)n1 [Compound 87]	–	–	86	101	–	–	–	25	> 10000	–	–
COc1cc(Nc2cccn3c(C)c(-c4ccc(F)cc4F)nc23)ccc1-n1cnc(C)c1 [Compound 26]	11	> 3020	75	94	11	> 3000	–	–	–	–	–
COc1cc(Nc2cccn3cc(-c4ccc(F)cc4C)nc23)ccc1-n1cnc(C)c1 [Compound 52]	10	> 3020	66	91	10	> 3000	–	–	–	–	–
COc1cc(Nc2cccn3cc(-c4ccc(N5CCOCC5)cc4)nc23)ccc1-n1cnc(C)c1 [Compound 40]	56	> 3020	80	99	62	> 3000	–	–	–	–	–
COc1ccc(C)c(-c2cn3cccc(Nc4ccc(-n5cnc(C)n5)c(F)c4)c3n2)c1 [Compound 94]	115	> 3020	96	101	–	–	–	–	–	–	–
COc1cccc(-c2nc3c(Nc4ccc(-n5ccnc5)c(OC)c4)cccn3c2C)c1 [Compound 35]	19	> 3020	–	–	19	> 1000	124.2	–	–	–	–
COc1cc(Nc2cccn3cc(C)nc23)ccc1-n1cncn1 [Compound 80]	3800	> 10000	–	–	–	–	147.5	–	–	–	–
Cc1ccc(C(F)(F)F)cc1-c1cn2cccc(Nc3ccc(-n4ncnc4C)c(F)c3)c2n1 [Compound 130]	178	> 3020	–	–	–	–	210	–	–	–	–
Cc1ncn(-c2ccc(Nc3cccn4cc(-c5ccc(F)cc5C)nc34)cn2)n1 [Compound 98]	–	–	84	97	–	–	–	32	> 3020	–	–
CCN(CC)c1ccc(-c2cn3cccc(Nc4ccc(-n5cnc(C)c5)c(OC)c4)c3n2)cc1 [Compound 39]	68	> 3020	82	108	75	> 3000	–	–	–	–	–
COc1ccccc1-c1cn2cccc(Nc3ccc(-n4cnc(C)c4)c(OC)c3)c2n1 [Compound 32]	105	> 5010	81	113	114	> 5000	–	–	–	–	–
COc1cccc(-c2nc3c(Nc4ccc(-n5cncn5)c(OC)c4)cccn3c2C)c1 [Compound 7]	36	> 3020	68	105	37	> 1000	–	–	–	–	–
COc1cc(Nc2cccn3cc(Cc4ccc(F)cc4)nc23)ccc1-n1cnc(C)c1 [Compound 3]	148	12600	56	95	30	> 1000	–	–	–	–	–
COc1cc(Nc2cccn3cc(-c4ccccc4C)nc23)ccc1-n1cnc(C)n1 [Compound 70]	–	–	84	99	–	–	–	–	–	68	> 3020
Cc1ncn(-c2ccc(Nc3cccn4cc(-c5ccccc5C)nc34)cn2)n1 [Compound 86]	–	–	86	96	–	–	–	117	> 10000	–	–
